According to patent US6492124B1, “Trance activated signal transduction pathways in osteoclasts” (The Rockefeller University, priority 1999, dated 2002):

Columns and labels:
Format in all cases: cell-based, mouse
PKB [1] = test: PKB activation in osteoclasts (phospho-PKB Western blot)
Protocol: (§1) FIG. 1. […] (A) Mature bone marrow-derived osteoclasts were stimulated for the indicated times with recombinant hCD8-TRANCE (TRANCE; 1 μg/ml). Levels of phosphorylated forms of p44/p42 ERK (p44 ERK^P and p42 ERK^P), IκBα (IκB-α^P) and PKB (PKB^P) in whole cell extracts were determined using phospho-peptide-specific antibodies as indicated in the figure. […] (B) as in (A) except the use of mature bone marrow-derived dendritic cells instead of osteoclasts.
(§2) FIG. 2. […] (A) Osteoclasts were serum starved and then pretreated for 90 min with LY294002 (10 μM), Herbimycin A (Herb. A; 10 μM), and PP1 (10 μM) inhibitors which are specific for PI3-kinase, PTKs, and Src-family kinases, respectively, were stimulated for indicated times with TRANCE (1 μg/ml). Levels of phosphorylated p44/p42 ERK, PKB, and IκB-α were determined as described in FIG. 1. Cells pretreated with vehicle (DMSO) were used as a negative control. (B) as in (A) except the use of mature bone marrow-derived dendritic cells.
(§3) Primary cells and cell lines. […] In brief, bone marrow cells from tibiae and femur of 4-6 week old mice (C57BL/6, Jackson Laboratories) were cultured overnight in media (α-MEM, 10% FCS) in the presence of CSF-1 (5 ng/ml). […] For experiments described in this study, only adherent cells were used after extensive washing. […] After allowing them adhere for 2 hours to a tissue culture dish, contaminating floater cells were washed away and mature dendritic cells were obtained by overnight culture.
(§4) Cell stimulation, cell transfection and in vitro assays. In vitro differentiated mature dendritic cells, macrophages and osteoclasts were washed to remove exogenous growth factors, cultured in media with low serum (0.5% FCS, 6 hours), then stimulated by adding various cytokines in the presence or absence of inhibitors for various times as indicated. After stimulation, the cells were washed in ice-cold PBS, and subjected to Western blot analysis or immunoprecipitation as described below.
All cells were harvested and lysed in extraction buffer (20 mM HEPES NaOH (pH 7.4), 150 mM NaCl, 1% Triton X-100, 10% glycerol, 10 mM EDTA, 1 mM Na3VO4, 1 mM phenylmethylsulfonylfluoride, 1 μg/ml leupeptin, and 0.1 U of aprotinin per ml) and cleared by centrifugation to obtain whole cell extracts. Protein assays were performed to ensure equal amounts of lysates were used in each sample.

PKB [2] = test: PKB activation in dendritic cells (phospho-PKB Western blot)
Protocol: FIG. 1. TRANCE activates p44/42 ERK, NF-κB and PKB in osteoclasts and dendritic cells. (A) Mature bone marrow-derived osteoclasts were stimulated for the indicated times with recombinant hCD8-TRANCE (TRANCE; 1 μg/ml). Levels of phosphorylated forms of p44/p42 ERK (p44 ERK^P and p42 ERK^P), IκBα (IκB-α^P) and PKB (PKB^P) in whole cell extracts were determined using phospho-peptide-specific antibodies as indicated in the figure. The membranes were stripped and incubated with antibodies against the p44/p42 ERK, IκB-α, and PKB as indicated to confirm that similar amounts of whole cell extracts were analyzed. Note the decrease of IκB-α after 10 min of treatment due to its degradation. (B) as in (A) except the use of mature bone marrow-derived dendritic cells instead of osteoclasts.
FIG. 2. TRANCE-induced PKB activation in osteoclasts and dendritic cells is blocked by inhibitors of PI3-kinase, tyrosine kinases and Src family kinases. (A) Osteoclasts were serum starved and then pretreated for 90 min with LY294002 (10 μM), Herbimycin A (Herb. A; 10 μM), and PP1 (10 μM) inhibitors which are specific for PI3-kinase, PTKs, and Src-family kinases, respectively, were stimulated for indicated times with TRANCE (1 μg/ml). Levels of phosphorylated p44/p42 ERK, PKB, and IκB-α were determined as described in FIG. 1. Cells pretreated with vehicle (DMSO) were used as a negative control. (B) as in (A) except the use of mature bone marrow-derived dendritic cells.
FIG. 6. Cytokine receptors that engage TRAF6 activate PKB through Src-family kinases. (A) Dendritic cells were treated with TNF (10 ng/ml), TRANCE (5 μg/ml), LPS (50 μg/ml), or IL-1α (20 ng/ml) for the indicated times (min). The activation of PKB was determined in whole cell extracts using a phospho-PKB-specific antibody as described in FIG. 1. (B) Dendritic cells were pretreated with vehicle (DMSO) or the Src-family kinase inhibitor, PP1 (10 μM) for 90 minutes followed by a 15 minute treatment with TRANCE (5 μg/ml), LPS (50 μg/ml), or IL-1α (20 ng/ml) or no treatment at all (−). The activation of PKB was determined as described in FIG. 1.
Primary cells and cell lines. Osteoclasts and macrophages were generated from bone marrow precursors as described (Wani, et al., Endocrinology, 140:[…], 1999). In brief, bone marrow cells from tibiae and femur of 4-6 week old mice (C57BL/6, Jackson Laboratories) were cultured overnight in media (α-MEM, 10% FCS) in the presence of CSF-1 (5 ng/ml). After 24 hours, non-adherent cells were harvested, washed, and further cultured in media with CSF-1 (50 ng/ml) plus TRANCE (10 ng/ml) to develop osteoclasts, or with CSF-1 alone to develop macrophages. Using these conditions, after 4 days of culture, greater than 95 percent of the adherent cells were osteoclasts or macrophages. For experiments described in this study, only adherent cells were used after extensive washing. Mature dendritic cells were generated from bone marrow precursors of 4-6 week old female C57BL/6 mice (C57BL/6, Jackson Laboratories) cultured in media (RPMI1640, 5% FBS) and GM-CSF (1:30 cultured supernatant from the J558 cell line, a gift from Dr. R. M. Steinman, The Rockefeller University) for 8 days as previously described (Inaba, et al., J. Exp. Med., 176:1693-1702, 1992). To generate osteoclasts and dendritic cells from c-Src deficient mice, spleen cells, which contain hematopoietic precursors due to extramedullary hematopoeisis, were substituted for bone marrow cells as previously described (Schwartzberg, et al., Genes Dev., 11:2835-2844, 1997). Mature spleen-derived dendritic cells were isolated from spleens treated with collagenase (40 U/ml; Boehinger Mannheim) and subjected to a Nycodenz centrifugation gradient (14.5%; Nycomed) to obtain low density cells. After allowing them adhere for 2 hours to a tissue culture dish, contaminating floater cells were washed away and mature dendritic cells were obtained by overnight culture.
Cell stimulation, cell transfection and in vitro assays. […]

NF-κB = NF-κB activation measured by IκB-α phosphorylation/degradation in osteoclasts and dendritic cells (Western blot); conditions: osteoclasts and dendritic cells, beginning at 10 min of TRANCE, coinciding with peak of IκB-α phosphorylation
Protocol: as §1, §2, §3
as §4, with “below. […]” for “below.”

TNF-related activation-induced cytokine [TRANCE]
activation of PKB in c-Src−/− osteoclasts compared with wild-type (PKB [1]; TRANCE 5 μg/ml, 10 min): substantially reduced | time by which PKB activity subsided (PKB [1]; osteoclasts, TRANCE stimulation): ≤ 60 min | phosphorylated form of PKB upon TRANCE stimulation (PKB [1]; osteoclasts, after 5 minutes, TRANCE 1 μg/ml): increase | PKB activation in dendritic cells stimulated with cytokine (PKB [2]; TNF 10 ng/ml, TRANCE 5 μg/ml, LPS 50 μg/ml, IL-1α 20 ng/ml, CD40L data not shown): activated | PKB activation in dendritic cells from c-Src−/− mice (PKB [2]; TRANCE-treated, compared with wild-type): not significantly reduced | time for which PKB activity was sustained (PKB [2]; dendritic cells, TRANCE stimulation): greater than 3 hours | phosphorylated form of PKB upon TRANCE stimulation (PKB [2]; dendritic cells, after 5 minutes, TRANCE 1 μg/ml): increase | total cellular IκB-α (NF-κB): decrease
